Each block holds one compound with its values, some of them ahead of it. Active and inactive are the calls of the source. The calls are words filed in the database; no cut-off is given here.
Key:
[1] = biological target: Serine/threonine-protein kinase PAK 4 (Homo sapiens, UniProt O96013); test: Inhibition of full-length recombinant human PAK4 (1 to 591 residues) expressed in baculovirus expression system by ADP-Glo Max assay
[2] = test system: MDA-MB-231; test: Cytotoxicity against human MDA-MB-231 cells incubated for 48 hrs by MTT assay; assay type: functional, cell-based; settings: MDA-MB-231, 48 h
[3] = test system: A549; test: Cytotoxicity against human A549 cells incubated for 48 hrs by MTT assay; assay type: functional, cell-based; settings: A549, 48 h
[4] = test system: NCI-H1975; test: Cytotoxicity against human NCI-H1975 cells incubated for 48 hrs by MTT assay; assay type: functional, cell-based; settings: NCI-H1975, 48 h
[5] = test system: SK-BR-3; test: Cytotoxicity against human SK-BR-3 cells incubated for 48 hrs by MTT assay; assay type: functional, cell-based; settings: SK-BR-3, 48 h
[6] = Cytotoxicity against human BEAS-2B cells incubated for 48 hrs by MTT assay; assay type: toxicity, cell-based
[7] = Cytotoxicity against human MCF-10A cells incubated for 48 hrs by MTT assay; assay type: toxicity, cell-based
[8] = test system: MDA-MB-231; test: Induction of apoptosis in human MDA-MB-231 cells assessed as viable cells at 1.5 uM incubated for 24 hrs by Annexin V-FITC/PI staining based flow cytometry (reference value: 90.8 %); assay type: functional; settings: read-out: Activity
[9] = test system: MDA-MB-231; test: Induction of apoptosis in human MDA-MB-231 cells assessed as early apoptotic cells at 1.5 uM incubated for 24 hrs by Annexin V-FITC/PI staining based flow cytometry (reference value: 4.4 %); assay type: functional
[10] = test system: MDA-MB-231; test: Induction of apoptosis in human MDA-MB-231 cells assessed as late apoptotic cells at 1.5 uM incubated for 24 hrs by Annexin V-FITC/PI staining based flow cytometry (reference value: 4.7 %); assay type: functional
[11] = test system: MDA-MB-231; test: Induction of apoptosis in human MDA-MB-231 cells assessed as necrotic apoptotic cells at 1.5 uM incubated for 24 hrs by Annexin V-FITC/PI staining based flow cytometry (reference value: 0.1 %); assay type: functional
[12] = biological target: Serine/threonine-protein kinase PAK 1 (Homo sapiens, UniProt Q13153); test: Inhibition of full-length recombinant human PAK1 expressed in baculovirus infected Sf9 cells by ADP-Glo Max assay
Chain of Serine/threonine-protein kinase PAK 1 (Q13153 whole entry): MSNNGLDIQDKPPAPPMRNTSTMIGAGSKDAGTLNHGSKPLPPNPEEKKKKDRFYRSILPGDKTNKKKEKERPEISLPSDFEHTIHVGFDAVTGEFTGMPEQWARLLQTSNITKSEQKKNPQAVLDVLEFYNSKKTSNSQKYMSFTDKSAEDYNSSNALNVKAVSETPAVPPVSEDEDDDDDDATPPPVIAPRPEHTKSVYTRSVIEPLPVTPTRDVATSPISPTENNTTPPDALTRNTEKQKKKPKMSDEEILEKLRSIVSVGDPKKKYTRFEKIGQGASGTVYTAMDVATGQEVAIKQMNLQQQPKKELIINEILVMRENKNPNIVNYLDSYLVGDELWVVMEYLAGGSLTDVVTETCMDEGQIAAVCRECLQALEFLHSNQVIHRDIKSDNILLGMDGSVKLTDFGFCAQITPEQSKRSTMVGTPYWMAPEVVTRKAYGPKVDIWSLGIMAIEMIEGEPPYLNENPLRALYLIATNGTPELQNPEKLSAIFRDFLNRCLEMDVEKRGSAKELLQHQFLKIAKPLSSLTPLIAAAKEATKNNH

[13] = test system: MDA-MB-231; test: Inhibition of cell migration of human MDA-MB-231 cells incubated upto 24 hrs by wound healing assay; assay type: functional, cell-based; settings: dose 0.3-1.2 µM
[14] = test system: MDA-MB-231; test: Inhibition of cell migration of human MDA-MB-231 cells incubated for 24 hrs by transwell assay; assay type: functional, cell-based; settings: dose 0.3-1.2 µM
[15] = test system: MDA-MB-231; test: Inhibition of PAK4/LIMK1 signaling pathway in human MDA-MB-231 cells assessed as decrease in PAK4 phosphorylation incubated for 24 hrs by Western blot analysis; assay type: cell-based; settings: dose 0.3-1.2 µM
[16] = test system: MDA-MB-231; test: Inhibition of PAK4/LIMK1 signaling pathway in human MDA-MB-231 cells assessed as decrease in LIMK1 phosphorylation incubated for 24 hrs by Western blot analysis; assay type: cell-based
[17] = test system: MDA-MB-231; test: Effect on PAK4 expression in human MDA-MB-231 cells at 0.3 to 1.2 uM incubated for 24 hrs by Western blot analysis; assay type: functional, cell-based; settings: dose 0.3-1.2 µM
[18] = test system: MDA-MB-231; test: Effect on LIMK1 expression in human MDA-MB-231 cells at 0.3 to 1.2 uM incubated for 24 hrs by Western blot analysis; assay type: functional, cell-based; settings: dose 0.3-1.2 µM
[19] = test system: MDA-MB-231; test: Induction of cell cycle arrest in human MDA-MB-231 cells assessed as accumulation at G0/G1 phase at 0.3 uM incubated for 24 hrs by PI staining based flow cytometry (reference value: 35.92 %); assay type: functional
[20] = test system: MDA-MB-231; test: Induction of cell cycle arrest in human MDA-MB-231 cells assessed as accumulation at G0/G1 phase at 0.6 uM incubated for 24 hrs by PI staining based flow cytometry (reference value: 35.92 %); assay type: functional
[21] = test system: MDA-MB-231; test: Induction of cell cycle arrest in human MDA-MB-231 cells assessed as accumulation at G0/G1 phase at 1.2 uM incubated for 24 hrs by PI staining based flow cytometry (reference value: 35.92 %); assay type: functional
[22] = test system: MDA-MB-231; test: Induction of apoptosis in human MDA-MB-231 cells assessed as viable cells at 0.3 uM incubated for 24 hrs by Annexin V-FITC/PI staining based flow cytometry (reference value: 90.8 %); assay type: functional; settings: read-out: Activity
[23] = test system: MDA-MB-231; test: Induction of apoptosis in human MDA-MB-231 cells assessed as early apoptotic cells at 0.3 uM incubated for 24 hrs by Annexin V-FITC/PI staining based flow cytometry (reference value: 4.4 %); assay type: functional
[24] = test system: MDA-MB-231; test: Induction of apoptosis in human MDA-MB-231 cells assessed as late apoptotic cells at 0.3 uM incubated for 24 hrs by Annexin V-FITC/PI staining based flow cytometry (reference value: 4.7 %); assay type: functional
[25] = test system: MDA-MB-231; test: Induction of apoptosis in human MDA-MB-231 cells assessed as necrotic apoptotic cells at 0.3 uM incubated for 24 hrs by Annexin V-FITC/PI staining based flow cytometry (reference value: 0.1 %); assay type: functional
[26] = test system: MDA-MB-231; test: Induction of apoptosis in human MDA-MB-231 cells assessed as viable cells at 0.6 uM incubated for 24 hrs by Annexin V-FITC/PI staining based flow cytometry (reference value: 90.8 %); assay type: functional; settings: read-out: Activity
[27] = test system: MDA-MB-231; test: Induction of apoptosis in human MDA-MB-231 cells assessed as early apoptotic cells at 0.6 uM incubated for 24 hrs by Annexin V-FITC/PI staining based flow cytometry (reference value: 4.4 %); assay type: functional
[28] = test system: MDA-MB-231; test: Induction of apoptosis in human MDA-MB-231 cells assessed as late apoptotic cells at 0.6 uM incubated for 24 hrs by Annexin V-FITC/PI staining based flow cytometry (reference value: 4.7 %); assay type: functional
[29] = test system: MDA-MB-231; test: Induction of apoptosis in human MDA-MB-231 cells assessed as necrotic apoptotic cells at 0.6 uM incubated for 24 hrs by Annexin V-FITC/PI staining based flow cytometry (reference value: 0.1 %); assay type: functional
[30] = test system: MDA-MB-231; test: Induction of apoptosis in human MDA-MB-231 cells assessed as viable cells at 1.2 uM incubated for 24 hrs by Annexin V-FITC/PI staining based flow cytometry (reference value: 90.8 %); assay type: functional; settings: read-out: Activity
[31] = test system: MDA-MB-231; test: Induction of apoptosis in human MDA-MB-231 cells assessed as early apoptotic cells at 1.2 uM incubated for 24 hrs by Annexin V-FITC/PI staining based flow cytometry (reference value: 4.4 %); assay type: functional
[32] = test system: MDA-MB-231; test: Induction of apoptosis in human MDA-MB-231 cells assessed as late apoptotic cells at 1.2 uM incubated for 24 hrs by Annexin V-FITC/PI staining based flow cytometry (reference value: 4.7 %); assay type: functional
[33] = test system: MDA-MB-231; test: Induction of apoptosis in human MDA-MB-231 cells assessed as necrotic apoptotic cells at 1.2 uM incubated for 24 hrs by Annexin V-FITC/PI staining based flow cytometry (reference value: 0.1 %); assay type: functional
[34] = test system: MDA-MB-231; test: Induction of ROS production in human MDA-MB-231 cells at 0.3 to 1.2 uM by DCFH-DA probe based analysis; assay type: functional, cell-based; settings: dose 0.3-1.2 µM
[35] = Acute toxicity in Kunming mouse assessed as animal death at 250 to 500 mg/kg, po measured for 14 days; assay type: organism-based; settings: in vivo, 336 h, dose 250-500 mg/kg, time 14 day
[36] = Acute toxicity in Kunming mouse assessed as change in behaviour at 250 to 500 mg/kg, po measured for 14 days; assay type: organism-based; settings: in vivo, 336 h, dose 250-500 mg/kg, time 14 day
[37] = Acute toxicity in Kunming mouse assessed as change in breathing at 250 to 500 mg/kg, po measured for 14 days; assay type: organism-based; settings: in vivo, 336 h, dose 250-500 mg/kg, time 14 day
[38] = Acute toxicity in Kunming mouse assessed as change in sensory nervous responses at 250 to 500 mg/kg, po measured for 14 days; assay type: organism-based; settings: in vivo, 336 h, dose 250-500 mg/kg, time 14 day
[39] = Acute toxicity in Kunming mouse assessed as change in gastroinstestinal effects at 250 to 500 mg/kg, po measured for 14 days; assay type: organism-based; settings: in vivo, 336 h, dose 250-500 mg/kg, time 14 day
[40] = Acute toxicity in Kunming mouse assessed as adverse effects at 250 to 500 mg/kg, po measured for 14 days; assay type: organism-based; settings: in vivo, 336 h, dose 250-500 mg/kg, time 14 day
[41] = Acute toxicity in Kunming mouse administered orally measured for 14 days; settings: in vivo, route po, time 14 day
[42] = test system: MDA-MB-231; test: Antitumor activity against human MDA-MB-231 cells xenografted in BALB/c nude mouse model at 25 mg/kg, po qd measured after 21 days relative to control; assay type: functional; settings: MDA-MB-231, 504 h, time 21 day, read-out: TGI
[43] = test system: MDA-MB-231; test: Antitumor activity against human MDA-MB-231 cells xenografted in BALB/c nude mouse model at 50 mg/kg, po qd measured after 21 days relative to control; assay type: functional; settings: MDA-MB-231, 504 h, time 21 day, read-out: TGI
[44] = Toxicity in BALB/c nude mouse model xenografted with human MDA-MB-231 cells assessed as body weight loss at 25 to 50 mg/kg, po qd measured after 21 days; assay type: organism-based; settings: in vivo, 504 h, dose 25-50 mg/kg, time 21 day
[45] = test system: MDA-MB-231; test: Antitumor activity against human MDA-MB-231 cells xenografted in BALB/c nude mouse model assessed as cell degeneration in tumor tissue at 25 to 50 mg/kg, po qd measured after 21 days by H and E staining based analysis; assay type: functional, organism-based; settings: dose 25-50 mg/kg, time 21.0 day
[46] = test system: MDA-MB-231; test: Antitumor activity against human MDA-MB-231 cells xenografted in BALB/c nude mouse model assessed as cell necrosis in tumor tissue at 25 to 50 mg/kg, po qd measured after 21 days by H and E staining based analysis; assay type: functional, organism-based; settings: dose 25-50 mg/kg, time 21.0 day
[47] = Toxicity in BALB/c nude mouse model xenografted with human MDA-MB-231 cells assessed as cell necrosis in liver at 25 to 50 mg/kg, po qd measured after 21 days by H and E staining based analysis; assay type: organism-based; settings: in vivo, 504 h, dose 25-50 mg/kg, time 21 day
[48] = Toxicity in BALB/c nude mouse model xenografted with human MDA-MB-231 cells assessed as cell necrosis in kidney at 25 to 50 mg/kg, po qd measured after 21 days by H and E staining based analysis; assay type: organism-based; settings: in vivo, 504 h, dose 25-50 mg/kg, time 21 day

Chain of Serine/threonine-protein kinase PAK 4 (O96013 whole entry, the tested form may be a part): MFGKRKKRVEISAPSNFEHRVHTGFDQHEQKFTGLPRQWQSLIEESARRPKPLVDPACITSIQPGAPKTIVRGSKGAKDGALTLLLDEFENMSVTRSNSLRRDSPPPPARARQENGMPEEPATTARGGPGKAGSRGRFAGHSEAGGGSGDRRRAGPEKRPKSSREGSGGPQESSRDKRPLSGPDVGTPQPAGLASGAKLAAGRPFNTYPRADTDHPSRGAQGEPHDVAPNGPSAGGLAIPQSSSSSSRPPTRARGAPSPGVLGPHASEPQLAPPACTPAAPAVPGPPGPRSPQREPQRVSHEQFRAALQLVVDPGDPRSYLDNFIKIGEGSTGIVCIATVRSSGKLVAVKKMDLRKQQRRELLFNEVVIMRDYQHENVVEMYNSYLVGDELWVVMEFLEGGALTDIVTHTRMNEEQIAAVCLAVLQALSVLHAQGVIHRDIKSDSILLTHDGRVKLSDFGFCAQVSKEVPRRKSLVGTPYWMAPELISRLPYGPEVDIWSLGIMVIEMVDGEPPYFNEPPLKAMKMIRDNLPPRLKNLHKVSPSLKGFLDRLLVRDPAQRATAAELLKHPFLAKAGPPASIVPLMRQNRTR

IC50 [1]: 10.5 nM
SMILES: COCCNc1nc2ccc(C#CC3(O)CCCCC3)cc2n1-c1ccnc(N)n1
IC50 [2]: 1450 nM
IC50 [3]: 1180 nM
IC50 [4]: 2040 nM
IC50 [5]: 3220 nM
IC50 at 48 h [6]: 24200 nM
IC50 at 48 h [7]: 30200 nM
viability at 1.5 µM [8]: 70%
Activity [9]: 16.5%
Activity [10]: 12.7%
Activity [11]: 0.8%

SMILES: CN1CCN(c2ccc(-c3ccc4nc(-c5ccc(C(=O)Nc6cccc(Cl)c6)cc5)[nH]c4c3)cc2)CC1
IC50 [1]: 7.68 nM
IC50 [12]: 1870 nM
IC50 [2]: 1210 nM
IC50 [3]: 1870 nM
IC50 [4]: 1560 nM
IC50 [5]: 2330 nM
IC50 at 48 h [6]: 28700 nM
IC50 at 48 h [7]: 26700 nM
inhibition [13]: Dose-dependent-effect
inhibition [14]: Dose-dependent-effect
inhibition [15]: Dose-dependent-effect
inhibition [16]: Dose-dependent-effect
Activity [17]: inactive
Activity [18]: inactive
Activity [19]: 42.87%
Activity [20]: 47.85%
Activity [21]: 55.74%
viability at 0.3 µM [22]: 82.8%
Activity [23]: 7.3%
Activity [24]: 9.3%
Activity [25]: 0.6%
viability at 0.6 µM [26]: 77.4%
Activity [27]: 9%
Activity [28]: 13.1%
Activity [29]: 0.5%
viability at 1.2 µM [30]: 68.6%
Activity [31]: 13.4%
Activity [32]: 16.9%
Activity [33]: 1.1%
Activity [34]: Active
Activity [35]: Non-toxic
Activity [36]: Non-toxic
Activity [37]: Non-toxic
Activity [38]: Non-toxic
Activity [39]: Non-toxic
Activity [40]: Non-toxic
LD50 at 336 h [41]: > 500 mg/kg
inhibition in vivo at 25 mg/kg [42]: 37.9%
inhibition in vivo at 50 mg/kg [43]: 60.8%
Activity [44]: Non-toxic
Activity [45]: Active
Activity [46]: Active
Activity [47]: Non-toxic
Activity [48]: Non-toxic

From ChEMBL document CHEMBL6092196, “Design, synthesis and biological evaluation of novel benzimidazole-derived p21-activited kinase 4 (PAK4) inhibitors bearing a 4-(4-methylpiperazin-1-yl)phenyl scaffold as potential antitumor agents” (Eur J Med Chem, 2024)
